From patent US20130072470A1 (ABBVIE INC., priority 2011, published 2013)

The molecules below were run against T1, Jak3 enzyme (aa 811-1103) (Homo sapiens, UniProt P52333) (assay: In vitro Jak3 kinase activity measured by time-resolved fluorescence resonance energy transfer (trFRET)). Conditions: ATP 0.001 mM.
T1 construct: Jak3 enzyme (aa 811-1103); expressed in SF9 cells as a GST fusion; GST; made in house; host or cells: SF9 insect cells
Format: biochemical
Experimental: In Vitro Jak3 Kinase Activity Measured by Time-Resolved Fluorescence Resonance Energy Transfer (trFRET)
Varying concentrations of inhibitor were added to an assay well containing: Jak3 enzyme (aa 811-1103; expressed in SF9 cells as a GST fusion and purified by glutathione affinity chromatography; 3 nM), peptide substrate (biotin-TYR2, Sequence: Biotin-(Ahx)-AEEEYFFLFA-amide; 2 μM), MOPSO pH 6.5 (50 mM), MgCl2 (10 mM), MnCl2 (2 mM), DTT (2.5 mM), BSA (0.01% w/v), Na3VO4 (0.1 mM) and ATP (0.001 mM). After about 60 min incubation at rt, the reaction was quenched by addition of EDTA (final concentration: 100 mM) and developed by addition of revelation reagents (final approximate concentrations: 30 mM HEPES pH 7.0, 0.06% BSA, 0.006% Tween-20, 0.24 M KF, 80 ng/mL PT66K (europium labeled anti-phosphotyrosine antibody cat #61T66KLB Cisbio, Bedford, Mass.) and 0.8 μg/mL SAXL (Phycolink streptavidin-allophycocyanin acceptor, cat #PJ52S, Prozyme, San Leandro, Calif.). The developed reaction was incubated in the dark either at about 4° C., for about 14 h or for about 60 min at rt, then read via a time-resolved fluorescence detector (Rubystar, BMG) using a 337 nm laser for excitation and emission wavelength of 665 nm. Within the linear range of the assay, the observed signal at 665 nm is directly related to phosphorylated product and used to calculate the IC50 values.

T1 sequence (P52333 811-1103): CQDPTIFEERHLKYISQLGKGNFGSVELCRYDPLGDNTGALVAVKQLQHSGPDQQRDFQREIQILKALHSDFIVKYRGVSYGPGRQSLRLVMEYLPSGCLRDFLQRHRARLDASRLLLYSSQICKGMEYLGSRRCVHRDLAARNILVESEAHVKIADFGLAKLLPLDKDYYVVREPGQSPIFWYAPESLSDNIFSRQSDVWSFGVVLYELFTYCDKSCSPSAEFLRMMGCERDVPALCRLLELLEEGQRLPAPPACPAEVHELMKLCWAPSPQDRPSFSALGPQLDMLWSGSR

Row | IC50 | SMILES
1 | 1 to 10 µM | C[C@@H]1CN(C(=O)CC2CC2)C[C@@H]1c1cnc2cnc3[nH]ccc3n12 [Example #21, 1-((3R,4S)-3-(3H-imidazo[1,2-a]pyrrolo[2,3-e]pyrazin-8-yl)-4-methylpyrrolidin-1-yl)-2-cyclopropylethanone]
2 | 1 to 10 µM | CC[C@@H]1C[C@H](NC(=O)c2coc(C)n2)C[C@@H]1c1nnc2cnc3[nH]ccc3n12 [Example #24, N-((1S,3R,4S)-3-ethyl-4-(6H-pyrrolo[2,3-e][1,2,4]triazolo[4,3-a]pyrazin-1-yl)cyclopentyl)-2-methyloxazole-4-carboxamide]
3 | > 10 µM | C[C@@H]1C[C@H](CCC#N)C[C@@H]1c1nnc2cnc3[nH]ccc3n12 [Example #9, 3-((1S,3R,4S)-3-methyl-4-(6H-pyrrolo[2,3-e][1,2,4]triazolo[4,3-a]pyrazin-1-yl)cyclopentyl)propanenitrile]
4 | 1 to 10 µM | C[C@@H]1CN(C(=O)NCC(F)F)C[C@@H]1c1cnc2cnc3[nH]ccc3n12 [Example 09, (3R,4S)—N-(2,2-difluoroethyl)-3-(3H-imidazo[1,2-a]pyrrolo[2,3-e]pyrazin-8-yl)-4-methylpyrrolidine-1-carboxamide]
5 | 1 to 10 µM | C[C@@H]1C[C@H](N(C)C(=O)c2cocn2)C[C@@H]1c1cnc2cnc3[nH]ccc3n12 [Example #3, N-((1S,3S,4R)-3-(3H-imidazo[1,2-a]pyrrolo[2,3-e]pyrazin-8-yl)-4-methylcyclopentyl)-N-methyloxazole-4-carboxamide]
6 | 1 to 10 µM | C[C@@H]1C[C@@H](CCC#N)C[C@@H]1c1nnc2cnc3[nH]ccc3n12 [Example #10, 3-((1R,3R,4S)-3-methyl-4-(6H-pyrrolo[2,3-e][1,2,4]triazolo[4,3-a]pyrazin-1-yl)cyclopentyl)propanenitrile]
7 | > 10 µM | CC[C@@H]1CN(C(=O)NCC(C)(F)F)C[C@@H]1c1cnc2cnc3[nH]ccc3n12 [Example #16, (3S,4R)—N-(2,2-difluoropropyl)-3-ethyl-4-(3H-imidazo[1,2-a]pyrrolo[2,3-e]pyrazin-8-yl)pyrrolidine-1-carboxamide]
8 | 1 to 10 µM | CC[C@@H]1CN(C(=O)CCC(F)(F)F)C[C@@H]1c1cnc2cnc3[nH]ccc3n12 [Example #15, 1-((3S,4R)-3-ethyl-4-(3H-imidazo[1,2-a]pyrrolo[2,3-e]pyrazin-8-yl)pyrrolidin-1-yl)-4,4,4-trifluorobutan-1-one]

Same assay, conditions: ATP 0.001 mM, Table B

Row | IC50 | SMILES
9 | > 10 µM | CC[C@@H]1C[C@H](NC(=O)CN(C)C(=O)c2ccco2)C[C@@H]1c1nnc2cnc3[nH]ccc3n12 [compound 27, N-(2-((1S,3R,4S)-3-ethyl-4-(6H-pyrrolo[2,3-e][1,2,4]triazolo[4,3-a]pyrazin-1-yl)cyclopentylamino)-2-oxoethyl)-N-methylfuran-2-carboxamide]
10 | 1 to 10 µM | CC[C@@H]1C[C@H](NC(=O)c2cocn2)C[C@@H]1c1nnc2cnc3[nH]ccc3n12 [compound 63, N-((1S,3R,4S)-3-ethyl-4-(6H-pyrrolo[2,3-e][1,2,4]triazolo[4,3-a]pyrazin-1-yl)cyclopentyl)oxazole-4-carboxamide]
11 | 1 to 10 µM | CC[C@@H]1C[C@H](NC(=O)c2ocnc2C)C[C@@H]1c1nnc2cnc3[nH]ccc3n12 [compound 51, N-((1S,3R,4S)-3-ethyl-4-(6H-pyrrolo[2,3-e][1,2,4]triazolo[4,3-a]pyrazin-1-yl)cyclopentyl)-4-methyloxazole-5-carboxamide]
12 | 1 to 10 µM | CC[C@@H]1C[C@H](NC(=O)c2coc3c2C(=O)CCC3)C[C@@H]1c1nnc2cnc3[nH]ccc3n12 [compound 58, N-((1S,3R,4S)-3-ethyl-4-(6H-pyrrolo[2,3-e][1,2,4]triazolo[4,3-a]pyrazin-1-yl)cyclopentyl)-4-oxo-4,5,6,7-tetrahydrobenzofuran-3-carboxamide]
13 | 1 to 10 µM | CC[C@@H]1C[C@H](NC(=O)c2ncoc2C)C[C@@H]1c1nnc2cnc3[nH]ccc3n12 [compound 42, N-((1S,3R,4S)-3-ethyl-4-(6H-pyrrolo[2,3-e][1,2,4]triazolo[4,3-a]pyrazin-1-yl)cyclopentyl)-5-methyloxazole-4-carboxamide]
14 | 1 to 10 µM | CC[C@@H]1C[C@H](NC(=O)c2noc3c2CC(C)CC3)C[C@@H]1c1nnc2cnc3[nH]ccc3n12 (stereo partly drawn) [compound 29, N-((1S,3R,4S)-3-ethyl-4-(6H-pyrrolo[2,3-e][1,2,4]triazolo[4,3-a]pyrazin-1-yl)cyclopentyl)-5-methyl-4,5,6,7-tetrahydrobenzo[d]isoxazole-3-carboxamide]
15 | < 1 µM | CC[C@@H]1C[C@H](NC(=O)C2=NN=C(c3ccco3)C2)C[C@@H]1c1nnc2cnc3[nH]ccc3n12 [compound 39, N-((1S,3R,4S)-3-ethyl-4-(6H-pyrrolo[2,3-e][1,2,4]triazolo[4,3-a]pyrazin-1-yl)cyclopentyl)-5-(furan-2-yl)-4H-pyrazole-3-carboxamide]
16 | 1 to 10 µM | CC[C@@H]1C[C@H](NC(=O)c2cc(C3CC3)on2)C[C@@H]1c1nnc2cnc3[nH]ccc3n12 [compound 59, 5-cyclopropyl-N-((1S,3R,4S)-3-ethyl-4-(6H-pyrrolo[2,3-e][1,2,4]triazolo[4,3-a]pyrazin-1-yl)cyclopentyl)isoxazole-3-carboxamide]
17 | 1 to 10 µM | CC[C@@H]1C[C@H](NC(=O)CCc2ccc(C)o2)C[C@@H]1c1nnc2cnc3[nH]ccc3n12 [compound 69, N-((1S,3R,4S)-3-ethyl-4-(6H-pyrrolo[2,3-e][1,2,4]triazolo[4,3-a]pyrazin-1-yl)cyclopentyl)-3-(5-methylfuran-2-yl)propanamide]
18 | 1 to 10 µM | CC[C@@H]1C[C@H](NC(=O)c2c(C)oc3c2CCCC3)C[C@@H]1c1nnc2cnc3[nH]ccc3n12 [compound 35, N-((1S,3R,4S)-3-ethyl-4-(6H-pyrrolo[2,3-e][1,2,4]triazolo[4,3-a]pyrazin-1-yl)cyclopentyl)-2-methyl-4,5,6,7-tetrahydrobenzofuran-3-carboxamide]
19 | 1 to 10 µM | CC[C@@H]1C[C@H](NC(=O)c2cc(C)no2)C[C@@H]1c1nnc2cnc3[nH]ccc3n12 [compound 62, N-((1S,3R,4S)-3-ethyl-4-(6H-pyrrolo[2,3-e][1,2,4]triazolo[4,3-a]pyrazin-1-yl)cyclopentyl)-3-methylisoxazole-5-carboxamide]
20 | 1 to 10 µM | CC[C@@H]1C[C@H](NC(=O)CCC2CCC(=O)N2)C[C@@H]1c1nnc2cnc3[nH]ccc3n12 (stereo partly drawn) [compound 80, N-((1S,3R,4S)-3-ethyl-4-(6H-pyrrolo[2,3-e][1,2,4]triazolo[4,3-a]pyrazin-1-yl)cyclopentyl)-3-(5-oxopyrrolidin-2-yl)propanamide]
21 | 1 to 10 µM | CC[C@@H]1C[C@H](NC(=O)CNC(=O)c2ccco2)C[C@@H]1c1nnc2cnc3[nH]ccc3n12 [compound 48]
22 | 1 to 10 µM | CC[C@@H]1C[C@H](NC(=O)c2occc2C)C[C@@H]1c1nnc2cnc3[nH]ccc3n12 [compound 79, N-((1S,3R,4S)-3-ethyl-4-(6H-pyrrolo[2,3-e][1,2,4]triazolo[4,3-a]pyrazin-1-yl)cyclopentyl)-3-methylfuran-2-carboxamide]
23 | 1 to 10 µM | CC[C@@H]1C[C@H](NC(=O)CCc2nc(C)no2)C[C@@H]1c1nnc2cnc3[nH]ccc3n12 [compound 37, N-((1S,3R,4S)-3-ethyl-4-(6H-pyrrolo[2,3-e][1,2,4]triazolo[4,3-a]pyrazin-1-yl)cyclopentyl)-3-(3-methyl-1,2,4-oxadiazol-5-yl)propanamide]
24 | 1 to 10 µM | CC[C@@H]1C[C@H](NC(=O)/C=C/c2ccc(C)o2)C[C@@H]1c1nnc2cnc3[nH]ccc3n12 [compound 25, (E)-N-((1S,3R,4S)-3-ethyl-4-(6H-pyrrolo[2,3-e][1,2,4]triazolo[4,3-a]pyrazin-1-yl)cyclopentyl)-3-(5-methylfuran-2-yl)acrylamide]
25 | 1 to 10 µM | CC[C@@H]1C[C@H](NC(=O)c2coc3ccccc23)C[C@@H]1c1nnc2cnc3[nH]ccc3n12 [compound 32, N-((1S,3R,4S)-3-ethyl-4-(6H-pyrrolo[2,3-e][1,2,4]triazolo[4,3-a]pyrazin-1-yl)cyclopentyl)benzofuran-3-carboxamide]
26 | 1 to 10 µM | CCc1cc(C(=O)N[C@H]2C[C@@H](CC)[C@@H](c3nnc4cnc5[nH]ccc5n34)C2)no1 [compound 76, 5-ethyl-N-((1S,3R,4S)-3-ethyl-4-(6H-pyrrolo[2,3-e][1,2,4]triazolo[4,3-a]pyrazin-1-yl)cyclopentyl)isoxazole-3-carboxamide]
27 | 1 to 10 µM | CC[C@@H]1C[C@H](NC(=O)c2cc(OC)no2)C[C@@H]1c1nnc2cnc3[nH]ccc3n12 [compound 65, N-((1S,3R,4S)-3-ethyl-4-(6H-pyrrolo[2,3-e][1,2,4]triazolo[4,3-a]pyrazin-1-yl)cyclopentyl)-3-methoxyisoxazole-5-carboxamide]
28 | 1 to 10 µM | CCc1cc(C(=O)N[C@H]2C[C@@H](CC)[C@@H](c3nnc4cnc5[nH]ccc5n34)C2)on1 [compound 81, 3-ethyl-N-((1S,3R,4S)-3-ethyl-4-(6H-pyrrolo[2,3-e][1,2,4]triazolo[4,3-a]pyrazin-1-yl)cyclopentyl)isoxazole-5-carboxamide]
